Patent US9643992B2, “Two crystal forms of ginsenoside C-K and method for preparing same” (Zhejiang Hisun Pharmaceutical Co., Ltd., priority 2012, dated 2017)

assay: Thermostability test of crystal forms; type: physicochemical; conditions: solid sample placed at 80° C. for 1 week; change of crystal form detected
Method: 3. Thermostability Test The samples of crystal form D, crystal form H and crystal form G were each placed for 1 week at 80° C., and subsequently the changes of the crystal form were detected.

Compound | The crystal form after test
CC(C)=CCC[C@](C)(O[C@@H]1O[C@H](CO)[C@@H](O)[C@H](O)[C@H]1O)[C@H]1CC[C@]2(C)[C@@H]1[C@H](O)C[C@@H]1[C@@]3(C)CC[C@H](O)C(C)(C)[C@@H]3CC[C@]12C [crystal form D, ginsenoside C-K] | no change was observed
CC(C)=CCC[C@](C)(O[C@@H]1O[C@H](CO)[C@@H](O)[C@H](O)[C@H]1O)[C@H]1CC[C@]2(C)[C@@H]1[C@H](O)C[C@@H]1[C@@]3(C)CC[C@H](O)C(C)(C)[C@@H]3CC[C@]12C [crystal form G, ginsenoside C-K] | changed to crystal form D
CC(C)=CCC[C@](C)(O[C@@H]1O[C@H](CO)[C@@H](O)[C@H](O)[C@H]1O)[C@H]1CC[C@]2(C)[C@@H]1[C@H](O)C[C@@H]1[C@@]3(C)CC[C@H](O)C(C)(C)[C@@H]3CC[C@]12C [crystal form H, ginsenoside C-K] | no change was observed
